The structures appear in SMILES notation. Some results are limits rather than exact numbers.

Consider 21 compounds from BindingDB's records for doi:10.1016/j.ejmech.2018.08.031 (Wenzhou Medical University, 2018).

The nature of the assay: Inhibition of recombinant human GST-tagged EGFR L858R mutant cytoplasmic domain expressed in baculovirus expression system using FAM-labeled peptide as substrate after 10 mins by mobility shift assay.
On to `COc1cc(Nc2cc(Nc3ccc(Cl)cc3)ncn2)cc(OC)c1OC`, for which the IC50 (in general, the concentration that gives 50% inhibition) was > 10000 nM.
As to `CCOC(=O)CCCC(=O)Nc1cc(Nc2cccc(Cl)c2)ncn1`, the IC50 was > 10000 nM.
With `COc1cccc(Nc2cc(NC(=O)CCCC(=O)O)ncn2)c1`, the IC50 came to 31 nM.
In the case of `COc1ccc(OC)c(Nc2cc(NC(=O)CCCC(=O)O)ncn2)c1`, the IC50 was > 10000 nM.
Turning to `CCNc1cc(Nc2cccc(Cl)c2)ncn1`, the IC50 was > 10000 nM.
Regarding `O=C(O)CCCC(=O)Nc1cc(Nc2ccccc2)ncn1`, the IC50 was found to be 183 nM.
For `COc1ccc(Nc2cc(NC(=O)c3ccccc3)ncn2)cc1`, the half-maximal inhibitory concentration (IC50) came out at 60 nM.
As to `O=C(Nc1cc(Nc2ccc(Cl)cc2)ncn1)c1ccc(F)cc1`, the concentration for half-maximal inhibition (IC50) stood at 1610 nM.
Turning to `O=C(O)CCCC(=O)Nc1cc(N2CCOCC2)ncn1`, the IC50 is 27 nM.
With `CCOc1ccc(Nc2cc(NC(=O)c3ccccc3)ncn2)cc1` the figure was 1210 nM.
Turning to `COc1cccc(Nc2cc(Nc3cccc(Cl)c3)ncn2)c1`, the IC50 came to 1570 nM.
With `CCOC(=O)c1ccc(Nc2cc(NC(=O)CCCC(=O)O)ncn2)cc1`, the IC50 amounted to 69 nM.
For the compound `COc1ccc(OC)c(Nc2cc(Nc3ccc(N4CCN(C)CC4)cc3)ncn2)c1`, the IC50 was 167 nM.
In the case of `COc1ccc(OC)c(Nc2cc(Nc3ccc(S(N)(=O)=O)cc3)ncn2)c1`, the IC50 came out at 619 nM.
With `CCOC(=O)c1ccc(Nc2cc(Nc3cccc(OC)c3)ncn2)cc1` the figure was 1740 nM.
For `O=C(O)CCCC(=O)Nc1cc(Nc2cccc(Br)c2)ncn1`, the IC50 was > 10000 nM.
Turning to `COc1ccc(OC)c(Nc2cc(NCCc3cccs3)ncn2)c1`, the concentration for half-maximal inhibition (IC50) came out at 167 nM.
With `COc1ccc(OC)c(Nc2cc(Nc3ccc(F)cc3)ncn2)c1` the figure was 230 nM; with `CCOC(=O)CCC(=O)Nc1cc(Nc2cccc(Br)c2)ncn1`, 1340 nM.
With `O=C(O)CCCC(=O)Nc1cc(Nc2ccc(Cl)cc2)ncn1` the figure was 1320 nM; with `COc1cccc(Nc2cc(Nc3ccc(S(N)(=O)=O)cc3)ncn2)c1`, 1850 nM.
